Active and inactive are the calls of the source.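 How the source made its calls: active means plate Z score at or below -3, or inhibition of at least 30% at 20 µM; inactive means the rest.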

The assay is described as follows: EGFP reporter destabilization counter-screen – F442A EGFP cells, fluorescence, counter-screen for p/CIP destabilizer project, dose response (AID 2005).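 Further: cells express EGFP alone from a CMV promoter as a counter screen for p/CIP-EGFP.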 To be noted: F442A EGFP cells, EGFP fluorescence, 16 h, stronger effect = higher value.

For the compound `CCCCS(=O)(=O)Nc1ccc2c(c1)ncn2C1CCCCC1`, the inhibition (in general, the change of the read-out against control, counted positive when it falls) reads like this: (EGFP decrease, at 10 µM) 27.7%; (at 20 µM) 13.8% (inactive).

As to `CCOC(=O)C(C)On1c(-c2ccccc2)nc2ccc([N+](=O)[O-])cc21` (centres undefined), the inhibition by setting is: (EGFP decrease, at 10 µM) 5.1%; (at 20 µM) 25% (inactive).

As for `CC(=O)Nc1cn(C(C)=O)c(C)n1`, the inhibition (EGFP decrease, at 10 µM) is 5.9% and the inhibition (at 20 µM) was 33.7%.

As for `Cn1c(SCc2ccc(C#N)cc2)nnc1-c1ccccc1`, the inhibition reads like this: (EGFP decrease, at 10 µM) 18.5%; (at 20 µM) -12.9% (inactive).

In the case of `CC1CN(C(=O)c2cn3ccccc3n2)CC(C)O1` (centres undefined), the inhibition was 9.8% (EGFP decrease, at 10 µM) and 22.5% (inactive) (at 20 µM).

As to `CCOC(=O)c1c(C)n(C)c2cc(OCCN(CC)CC)ccc12`, the inhibition (EGFP decrease, at 10 µM) is -6% and the inhibition (at 20 µM) is 8.6% (inactive).

`NC(=O)COC(=O)CSc1cccc2cccc(Cl)c12`: the inhibition runs as follows: (EGFP decrease, at 10 µM) 24%; (at 20 µM) 10.6% (inactive).

`COc1ccccc1CN1CC(C(=O)NCc2cc(F)cc(C(F)(F)F)c2)CCC1=O` (centres undefined): the inhibition is, setting by setting: (EGFP decrease, at 10 µM) 4.7%; (at 20 µM) 12.5% (inactive).

Regarding `COc1cccc(CNC(=O)C2CCN(c3cnccn3)CC2)c1`, the inhibition reads like this: (EGFP decrease, at 10 µM) -0.8%; (at 20 µM) 8.6% (inactive).

`CCNc1nc(C)c2cc(Br)c(=O)n(CC)c2n1`: the inhibition is, setting by setting: (EGFP decrease, at 10 µM) 18.2%; (at 20 µM) 4.8% (inactive).

As for `C[C@H]1CC[C@@H]2[C@@H](C)[C@H]3[C@H](C[C@H]4[C@@H]5CC=C6C[C@@H](O[C@@H]7O[C@H](CO)[C@H](O)[C@H](O[C@@H]8O[C@H](CO)[C@@H](O)[C@H](O)[C@H]8O)[C@H]7O[C@@H]7O[C@@H](C)[C@H](O)[C@@H](O)[C@H]7O)CC[C@]6(C)[C@H]5CC[C@]34C)N2C1`, the inhibition runs as follows: (EGFP decrease, at 10 µM) 30.3%; (at 20 µM) -3% (inactive).

As to `CCn1c(COc2ccc(=O)n(-c3ccccc3)n2)nnc1SCc1ccccc1C`, the inhibition reads like this: (EGFP decrease, at 10 µM) 4.8%; (at 20 µM) 20.9% (inactive).

Consider `CCCc1sc(N/N=C/c2ccccn2)nc1-c1ccc(F)cc1`, for which the inhibition was 20.3% (EGFP decrease, at 10 µM) and 20.4% (inactive) (at 20 µM).

As to `Cc1cc(=O)[nH]c(SCC(=O)O)c1C#N`, the inhibition is 24% (EGFP decrease, at 10 µM) and 10.9% (inactive) (at 20 µM).

As to `Cn1cc(/C=C(\C(=O)O)C(C(=O)O)=C2CCCCC2)c2ccccc21`, the inhibition was 13.9% (EGFP decrease, at 10 µM) and 17.2% (inactive) (at 20 µM).

As for `CCOc1ccc(N(CC(=O)N2CCOCC2)S(=O)(=O)c2ccc(Cl)cc2)cc1`, the inhibition (EGFP decrease, at 10 µM) came out at 12.8% and the inhibition (at 20 µM) is 14.1% (inactive).

As to `CCN(C(=O)COC(=O)c1cc(NS(=O)(=O)c2ccc(Cl)c([N+](=O)[O-])c2)ccc1O)C1CCCCC1`, the inhibition is 13.6% (EGFP decrease, at 10 µM) and 6.6% (inactive) (at 20 µM).

For `Cc1ccc(C2C(C#N)=C(N)Oc3cc4c(cc32)OCO4)cc1` (centres undefined), the inhibition is 15.9% (EGFP decrease, at 10 µM) and 18.9% (inactive) (at 20 µM).

For `O=C(COC(=O)COc1ccccc1)NCc1ccccc1`, the inhibition is, setting by setting: (EGFP decrease, at 10 µM) 16.3%; (at 20 µM) 11.3% (inactive).

`CCOC(=O)N1CCC(NC(=O)C2CCCN(S(=O)(=O)c3cccc4nsnc34)C2)CC1` (centres undefined): the inhibition reads like this: (EGFP decrease, at 10 µM) 11%; (at 20 µM) 19% (inactive).

Regarding `CC(=O)c1cccc(OCc2cc(C(=O)N3CC4C[C@@H]5CC3C[C@H](C4)C5)no2)c1`, the inhibition is 37.1% (EGFP decrease, at 10 µM) and 27% (inactive) (at 20 µM).

`COc1ccccc1-c1cn[nH]c(=S)n1`: the inhibition reads like this: (EGFP decrease, at 10 µM) 24.4%; (at 20 µM) 8.7% (inactive).

As for `CCCCN(Cc1ccccc1)S(=O)(=O)c1ccc2[nH]c(=O)oc2c1`, the inhibition was 7.9% (EGFP decrease, at 10 µM) and 11.8% (inactive) (at 20 µM).

Regarding `COc1ccc(CN(CC(=O)NCc2ccc(F)cc2)C(=O)CCC(=O)Nc2ccccn2)cc1`, the inhibition was -14.2% (EGFP decrease, at 10 µM) and 16.1% (inactive) (at 20 µM).

Turning to `Cc1ccc(NC2=NC3(CCCCC3)N=C(N)N2)c(C)c1`, the inhibition by setting is: (EGFP decrease, at 10 µM) 32.9%; (at 20 µM) 41.8%.

For the compound `COc1cccc(CN2CC(C(=O)N(C)Cc3nc(C)cs3)CCC2=O)c1` (centres undefined), the inhibition by setting is: (EGFP decrease, at 10 µM) -5.9%; (at 20 µM) 16.2% (inactive).

For `CCCCn1c(SCC(=O)NCc2ccco2)nc2c(sc3ccccc32)c1=O`, the inhibition is, setting by setting: (EGFP decrease, at 10 µM) 20.5%; (at 20 µM) 13.2% (inactive).

Turning to `C=CCN(c1ccccc1)S(=O)(=O)c1ccc(Cl)c(C(=O)OCC(=O)NCCCN2CCCC2=O)c1`, the inhibition is 16.8% (EGFP decrease, at 10 µM) and 14.2% (inactive) (at 20 µM).

On to `COCC(=O)N1CCCN(c2nc3c(C)cccc3cc2C#N)CC1`, for which the inhibition (EGFP decrease, at 10 µM) came to 7.6% and the inhibition (at 20 µM) was -0.8% (inactive).

As for `CS(=O)(=O)N(CC(=O)N1CCN(Cc2ccc3c(c2)OCO3)CC1)c1ccc2c(c1)OCO2`, the inhibition runs as follows: (EGFP decrease, at 10 µM) 15.1%; (at 20 µM) -15.1% (inactive).

`c1ccc(-c2cn3c(n2)CCc2ccc4cccnc4c2-3)cc1`: the inhibition was -17.2% (EGFP decrease, at 10 µM) and -5% (inactive) (at 20 µM).

With `c1ccc(-c2cc(-c3nnco3)c3ccccc3n2)nc1`, the inhibition is 13.9% (EGFP decrease, at 10 µM) and -6.2% (inactive) (at 20 µM).

Regarding `CCN(Cc1ccccc1)C(=O)C(=O)c1cn(CC(=O)N2CCCC2)c2ccccc12`, the inhibition is 19.4% (EGFP decrease, at 10 µM) and 28.2% (inactive) (at 20 µM).

For the compound `Cc1ccc(NC(=O)N2CCCC2C(=O)NCc2ccc3c(c2)OCO3)cc1` (centres undefined), the inhibition is, setting by setting: (EGFP decrease, at 10 µM) -10.4%; (at 20 µM) -0.3% (inactive).

As to `Cc1ccc(-c2nc(CS(=O)CC(=O)NC3CCC(C)CC3)c(C)o2)cc1` (centres undefined), the inhibition reads like this: (EGFP decrease, at 10 µM) 27.4%; (at 20 µM) -4.5% (inactive).

Regarding `CC1=C(C(=O)OCc2ccccc2)C(c2ccc(C(F)(F)F)cc2)NC(=O)N1CCCCCC(=O)O` (centres undefined), the inhibition reads like this: (EGFP decrease, at 10 µM) -4.3%; (at 20 µM) -6% (inactive).

For `O=c1ccn(Cc2ccccc2Cl)cc1`, the inhibition (EGFP decrease, at 10 µM) came to 33.3% and the inhibition (at 20 µM) was 14.1% (inactive).

With `Cc1cc(C)n(C(=O)CNc2ccccc2Cl)n1`, the inhibition by setting is: (EGFP decrease, at 10 µM) 9%; (at 20 µM) 23.3% (inactive).

On to `NC(=O)c1cccn(Cc2ccc(C(F)(F)F)cc2)c1=O`, for which the inhibition was 6.5% (EGFP decrease, at 10 µM) and 5.4% (inactive) (at 20 µM).

For the compound `COc1c[nH]n(C2CCCCC2)c(=O)c1=O`, the inhibition runs as follows: (EGFP decrease, at 10 µM) 6.1%; (at 20 µM) -8.9% (inactive).

With `CCC1(C)Cc2c(c(=O)n(-c3ccccc3)c3ncnc(N)c23)CO1` (centres undefined), the inhibition is, setting by setting: (EGFP decrease, at 10 µM) 4.6%; (at 20 µM) -38.9% (inactive).

Take `Cc1ccc2c(COC(=O)CNC(=O)c3ccccc3)cc(=O)oc2c1`: the inhibition (EGFP decrease, at 10 µM) amounted to 5.9% and the inhibition (at 20 µM) was -2.9% (inactive).

Turning to `O=C(CN1C(=O)c2ccccc2C1=O)N(CCO)Cc1ccccc1`, the inhibition is, setting by setting: (EGFP decrease, at 10 µM) -7.7%; (at 20 µM) 16% (inactive).

Turning to `Cc1ccccc1-n1ncc2c1CC(C)(C)CC2NC(=O)CCN1CCCCC1=O` (centres undefined), the inhibition (EGFP decrease, at 10 µM) is -9.2% and the inhibition (at 20 µM) was 12.3% (inactive).

Take `Cc1c(NC(=O)CSc2ncccn2)c(=O)n(-c2ccccc2)n1C`: the inhibition is 15.5% (EGFP decrease, at 10 µM) and 17.7% (inactive) (at 20 µM).

On to `CC(=O)Nc1cc2c(cc1C(=O)c1ccc(C)cc1)OCCO2`, for which the inhibition is, setting by setting: (EGFP decrease, at 10 µM) 16%; (at 20 µM) -7.7% (inactive).

On to `O=C1NC(Cc2c[nH]c3ccccc23)C(=O)N1CCOc1ccc(F)cc1` (centres undefined), for which the inhibition (EGFP decrease, at 10 µM) was determined as 11.9% and the inhibition (at 20 µM) was 9.1% (inactive).

Take `CC1CC(C)CN(C(=O)c2ccc3c(c2NCCO)C(=O)c2ccccc2C3=O)C1` (centres undefined): the inhibition by setting is: (EGFP decrease, at 10 µM) 12.8%; (at 20 µM) 7.9% (inactive).

With `CC1CCCCC1NC(=O)c1cn(C)c2ccc(S(=O)(=O)N3CCCC3)cc2c1=O` (centres undefined), the inhibition by setting is: (EGFP decrease, at 10 µM) 12.3%; (at 20 µM) 6.4% (inactive).

For the compound `COC(=O)c1[nH]c2c(c1C)C(=O)CC(c1cccs1)C2` (centres undefined), the inhibition is, setting by setting: (EGFP decrease, at 10 µM) 16.8%; (at 20 µM) -4.5% (inactive).

Consider `CCOC(=O)N1CCC(NC(=O)Cn2nc(-c3ccccc3)ccc2=O)CC1`, for which the inhibition reads like this: (EGFP decrease, at 10 µM) 1.1%; (at 20 µM) 24.5% (inactive).

As to `CC1CCCCC1NC(=O)CN1C(=O)c2ccccc2S1(=O)=O` (centres undefined), the inhibition was -11.2% (EGFP decrease, at 10 µM) and 13.6% (inactive) (at 20 µM).

Consider `O=C(Nc1ccc(N2CCOCC2)cc1N1CCOCC1)c1ccc(Br)cc1`, for which the inhibition (EGFP decrease, at 10 µM) stood at 32.7% and the inhibition (at 20 µM) was 19.4% (inactive).

As for `CC(O)CNc1nc2c(c(=O)n(C)c(=O)n2C)n1Cc1cccc(Br)c1` (centres undefined), the inhibition by setting is: (EGFP decrease, at 10 µM) 24.8%; (at 20 µM) 12.7% (inactive).

Regarding `O=C(c1ccccc1)N1CCN(C(=O)c2cc3ccccc3o2)CC1`, the inhibition was 8.7% (EGFP decrease, at 10 µM) and 17.1% (inactive) (at 20 µM).

For `COC(=O)c1cc(NC(=O)CSc2nc(C)cc(=O)[nH]2)cc(C(=O)OC)c1`, the inhibition is 9.8% (EGFP decrease, at 10 µM) and 23.4% (inactive) (at 20 µM).

Regarding `Cc1cccc(-c2nnc3n2N=C(c2ccccc2Br)CS3)c1`, the inhibition by setting is: (EGFP decrease, at 10 µM) 18.2%; (at 20 µM) 10.8% (inactive).

With `CC(=O)Nc1ccc(S(=O)(=O)NCc2cn3ccsc3n2)cc1`, the inhibition runs as follows: (EGFP decrease, at 10 µM) 8.3%; (at 20 µM) 1% (inactive).

Take `CC(=O)CC(=O)NC(=NC1CCCCC1)Nc1nc(C)cc(C)n1`: the inhibition (EGFP decrease, at 10 µM) turned out to be 14.7% and the inhibition (at 20 µM) is 5.7% (inactive).

`CS(=O)(=O)Nc1ccccc1C(=O)Nc1cc(Cl)cc(Cl)c1`: the inhibition was 19.6% (EGFP decrease, at 10 µM) and -18.3% (inactive) (at 20 µM).

Take `CCC1=C(OC(=O)N(CC)CC)N2C(=O)OC(=NCC3CC3)[C@]2(Cc2ccccc2)[C@H]2C1=CC[C@H]1C(=O)N(CC(=O)OC)C(=O)[C@H]12`: the inhibition (EGFP decrease, at 10 µM) was found to be 0.3% and the inhibition (at 20 µM) is 13.8% (inactive).

Consider `O=C(c1ccccc1)N1CCCC(c2nc3c(nnn3Cc3ccccc3)c(=O)[nH]2)C1` (centres undefined), for which the inhibition reads like this: (EGFP decrease, at 10 µM) 32.3%; (at 20 µM) 16.2% (inactive).

(Values after PubChem BioAssay AID2005 (Sanford-Burnham Center for Chemical Genomics, 2009).)
